According to patent publication US20130115356A1, “SWEETENER COMPOSITION” (FIRMENICH SA, priority 2010, published 2013):

Assays:
[1] = Trained panel taste evaluation of lemon ice tea beverages; format: in vivo, human; settings: conclusion from Table 3, sclareolide 0.075 wt % in Base B
Method: Lemon ice tea beverages were prepared with the following ingredients in the amounts shown (grams). Base A is the full sucrose product (i.e. control sample). Base B is the same as base A except with 50% reduced sucrose and additional stevia sweetener in to provide the same level of sweetness.
The ingredients for each base were mixed together until fully dissolved.
The samples were then evaluated by a trained panel of 10 people. Tasting was performed by a blind and balanced presentation order of the samples with the intensity of acidity, bitterness, sweetness and liquorice all being assessed on a scale of 0 to 5 where 0 represents not perceptible and 5 represents very intense.
The scores were averaged and an analysis of variance was performed to identify significant differences between the samples.

[2] = Panel evaluation of a carbonated lemon beverage formulation; format: in vivo, human; settings: carbonated lemon beverage with stevia
Method: A lemon beverage syrup base was prepared by mixing together the following ingredients:
To a 1 litre portion of the syrup base was added 6 g of sclareolide, ex Avoca (1% w/v ethanolic solution). The mixture was then dilute with 5 litres of carbonated water to provide sclareolide at 10 ppm. This is referred to as sample 6.
To another 1 litre portion of the syrup base was added 0.12 g of sclareolide, ex Avoca (1% w/v ethanolic solution). The mixture was then dilute with 5 litres of carbonated water to provide sclareolide at 0.2 ppm. This is referred to as sample 7.
A third portion of the syrup base was used as is (i.e. with no sclareolide present) and was diluted with 5 litres of carbonated water. This is referred to as sample 8.
30 panellists were then asked to evaluate (i) sample 6 and sample 8 and (ii) sample 7 and sample 8 in a balanced, randomized blind test for Overall Flavor, Sweetness, Tartness/Acidity, Lingering Aftertaste, Metallic/Bitterness, Off-note aftertaste and Liquorice Flavor on an 11-point continuous intensity scale where 0=Imperceptible and 10=Extremely Pronounced.

For `CC1(C)CCC[C@]2(C)[C@H]3CC(=O)O[C@]3(C)CC[C@@H]12` [sclareolide], the “effect on the acidity, bitterness or sweetness of the product” value [1] was “does not appear to have a significant effect”, the “effect on the liquorice taste of the product” value [1] was “significantly reduces the liquorice taste” and the masking effect ([2]; sclareolide at 0.2 ppm) was “little or no masking effect observed”. The masking liquorice notes ([2]; sclareolide at 10 ppm) was “not achieved”.
